Legend:
[1] = log P determination by HPLC, reversed-phase column (EEC Directive 79/831 Annex V.A8); type: physicochemical; settings: reversed-phase C 18, 43° C., acidic range: 0.1% aqueous phosphoric acid, acetonitrile, gradient 10% to 90% (data labelled a))
Protocol: The log P values given in Table 1 were determined in accordance with the EEC Directive 79/831 Annex V.A8 by HPLC (High Performance Liquid Chromatography) using a reversed-phase column (C 18). Temperature: 43° C. (a) Mobile phases for the determination in the acidic range: 0.1% aqueous phosphoric acid, acetonitrile; linear gradient from 10% acetonitrile to 90% acetonitrile—the corresponding data are labelled a) in Table 1. (b) Mobile phases for the determination in the neutral range: 0.01 molar aqueous phosphate buffer solution, acetonitrile; linear gradient from 10% acetonitrile to 90% acetonitrile—the corresponding data are labelled b) in Table 1. The calibration was carried out using unbranched alkan-2-ones (having from 3 to 16 carbon atoms) whose log P values are known (determination of the log P values by the retention times by linear interpolation between two successive alkanones).

weeds [2] = experiment: Pre-emergence test (Example A), activity against weeds; type: in vivo; settings: soil sprayed about 24 hours after sowing, rated after three weeks
Protocol: (§1) Pre-emergence Test Solvent: 5 parts by weight of acetone Emulsifier: 1 part by weight of alkylaryl polyglycol ether To produce a suitable preparation of active compound, 1 part by weight of active compound is mixed with the stated amount of solvent, the stated amount of emulsifier is added and the concentrate is diluted with water to the desired concentration. Seeds of the test plants are sown in normal soil. After approximately 24 hours, the soil is sprayed with the preparation of the active compound in such a way as to apply the particular amount of active compound desired per unit area. The concentration of the spray liquor is chosen so that the amount of active compound desired in each case is applied in 1000 liter of water per hectare. After three weeks, the degree of damage to the plants is rated in % damage in comparison with the development of the untreated control. The figures denote: [table]

[3] = system: crop plants, such as, for example, barley, wheat, maize and soya; experiment: Pre-emergence test (Example A), compatibility with crop plants; type: in vivo; settings: rated after three weeks
Protocol: as §1

weeds [4] = experiment: Post-emergence test (Example B), activity against weeds; type: in vivo; settings: test plants 5-15 cm sprayed, rated after three weeks
Protocol: Post-emergence Test Solvent: 5 parts by weight of acetone Emulsifier: 1 part by weight of alkylaryl polyglycol ether To produce a suitable preparation of active compound, 1 part by weight of active compound is mixed with the stated amount of solvent, the stated amount of emulsifier is added and the concentrate is diluted with water to the desired concentration. Test plants which have a height of 5-15 cm are sprayed with the preparation of the active compound in such a way as to apply the particular amounts of active compound desired per unit area. The concentration of the spray liquor is chosen so that the amounts of active compound desired in each case are applied in 1000 l of water/ha. After three weeks, the degree of damage to the plants is rated in % damage in comparison with the development of the untreated control. The figures denote: 0%=no effect (like untreated control) 100%=total destruction

Structure (SMILES)	log P [1]	other results
Cc1ccc(Cl)c(Oc2cc(-c3nn(C)c(OC(F)F)c3Cl)c(F)cc2C#N)c1 [Example 125]	logP: 4.59^a)	
Cn1nc(-c2cc(Oc3cccc(F)c3)c(C#N)cc2F)c(Cl)c1OC(F)F [Example 71]	logP: 4.17^a)	
Cn1nc(-c2cc(Oc3ccccc3Cl)c(C#N)cc2F)c(Cl)c1OC(F)F [Example 67]	logP: 4.28^a)	
Cn1nc(-c2cc(Oc3ccccc3)c(C#N)cc2F)c(Cl)c1C(F)(F)F [Example 2, 4-chloro-3-(4-cyano-2-fluoro-5-phenoxyphenyl)-1-methyl-5-trifluoromethyl-1H-pyrazole]		melting point: 123 °C
Cc1cccc(Oc2cc(-c3nn(C)c(OC(F)F)c3Cl)c(F)cc2C#N)c1 [Example 57]	logP: 4.43^a)	
CC(=O)c1ccc(Oc2cc(-c3nn(C)c(OC(F)F)c3Cl)c(F)cc2C#N)cc1 [Example 84]	logP: 3.66^a)	
Cn1nc(-c2cc(Oc3cccc(C(F)(F)F)c3)c(C#N)cc2F)c(Cl)c1OC(F)F [Example 51]	logP: 4.55^a)	
Cn1nc(-c2cc(Oc3ccc(OC(F)(F)F)cc3)c(C#N)cc2F)c(Cl)c1OC(F)F [Example 76]	logP: 4.70^a)	
COc1cccc(Oc2cc(-c3nn(C)c(OC(F)F)c3Br)c(F)cc2C#N)c1OC [Example 112]	logP: 3.80^a)	
Cn1nc(-c2cc(Oc3ccc(F)cc3)c(C#N)cc2F)c(Cl)c1OC(F)F [Example 72]	logP: 4.13^a)	
COc1cccc(Oc2cc(-c3nn(C)c(OC(F)F)c3Cl)c(F)cc2C#N)c1 [Example 60]	logP: 4.13^a)	
COc1ccc(Oc2cc(-c3nn(C)c(OC(F)F)c3Cl)c(F)cc2C#N)cc1OC [Example 126]	logP: 3.72^a)	
Cc1ccccc1Oc1cc(-c2nn(C)c(OC(F)F)c2Cl)c(F)cc1C#N [Example 56]	logP: 4.40^a)	
Cc1ccc(Oc2cc(-c3nn(C)c(OC(F)F)c3Cl)c(F)cc2C#N)cc1 [Example 58]	logP: 4.45^a)	
COc1cccc(Oc2cc(-c3nn(C)c(OC(F)F)c3Cl)c(F)cc2C#N)c1OC [Example 124]	logP: 3.98^a)	
COc1ccccc1Oc1cc(-c2nn(C)c(OC(F)F)c2Cl)c(F)cc1C#N [Example 59]	logP: 3.98^a)	

Structure (SMILES)	log P [1]	other results
Cn1nc(-c2cc(Oc3ccccc3F)c(C#N)cc2F)c(Cl)c1OC(F)F [Example 70]	logP: 4.02^a)	
CCOC(=O)C(C)Oc1ccc(Oc2cc(-c3nn(C)c(OC(F)F)c3Br)c(F)cc2C#N)cc1 (stereo not shown) [Example 1, ethyl 2-[4-[2-cyano-5-[4-bromo-5-(difluoromethoxy)-1-methyl-1H-pyrazo-3-yl]-4-fluoro-phenoxy]-phenoxy]-propionate]		activity against weeds (degree of damage) (weeds [2]): strong activity against weeds; compatibility with crop plants [3]: good compatibility with crop plants; activity against weeds (degree of damage) (weeds [4]): strong activity against weeds; melting point: 60 °C
Cn1nc(-c2cc(Oc3cccc(Cl)c3)c(C#N)cc2F)c(Cl)c1OC(F)F [Example 68]	logP: 4.49^a)	
Cn1nc(-c2cc(Oc3cccc(F)c3F)c(C#N)cc2F)c(Cl)c1OC(F)F [Example 117]	logP: 4.13^a)	
Cn1nc(-c2cc(Oc3ccc(Cl)c(Cl)c3)c(C#N)cc2F)c(Cl)c1OC(F)F [Example 118]	logP: 4.89^a)	
Cn1nc(-c2cc(Oc3cccc(OC(F)(F)F)c3)c(C#N)cc2F)c(Cl)c1OC(F)F [Example 123]	logP: 4.72^a)	
CN(C)c1cccc(Oc2cc(-c3nn(C)c(OC(F)F)c3Cl)c(F)cc2C#N)c1 [Example 116]	logP: 4.38^a)	
CN(C)Cc1ccccc1Oc1cc(-c2nn(C)c(OC(F)F)c2Cl)c(F)cc1C#N [Example 121]	logP: 2.03^a)	
CCN(CC)c1cccc(Oc2cc(-c3nn(C)c(OC(F)F)c3Cl)c(F)cc2C#N)c1 [Example 122]	logP: 4.40^a)	
CN(C)C(=O)c1ccccc1Oc1cc(-c2nn(C)c(OC(F)F)c2Cl)c(F)cc1C#N [Example 115]	logP: 3.20^a)	
CC(C)Oc1ccccc1Oc1cc(-c2nn(C)c(OC(F)F)c2Cl)c(F)cc1C#N [Example 119]	logP: 4.55^a)	
Cn1nc(-c2cc(Oc3ccc(C(F)(F)F)cc3)c(C#N)cc2F)c(Cl)c1OC(F)F [Example 52]	logP: 4.59^a)	
COc1ccc(Oc2cc(-c3nn(C)c(OC(F)F)c3Cl)c(F)cc2C#N)cc1 [Example 61]	logP: 4.05^a)	
Cc1ccc(Oc2cc(-c3nn(C)c(OC(F)F)c3Cl)c(F)cc2C#N)cc1C [Example 120]	logP: 4.74^a)	
Cn1nc(-c2cc(Oc3ccc(Cl)cc3)c(C#N)cc2F)c(Cl)c1OC(F)F [Example 69]	logP: 4.49^a)	

Reference: patent publication US6559102B1, “Substituted 3-aryl-pyrazoles” (Bayer Aktiengesellschaft, priority 1998, dated 2003)
